Tests used:
[1] = test system: Homo sapiens; test: Increase in endogenous erythropoietin levels in human administered as single oral dose relative to control; assay type: functional
[2] = test system: Homo sapiens; test: Increase in hemoglobin levels in renal anemia patient at 40 to 120 mg administered for 4 weeks; assay type: functional
[3] = test system: Homo sapiens; test: Increase in hemoglobin levels in stage 5D chronic kidney disease patient at 200 to 700 mg administered for 28 days measured on day 29 relative to control; assay type: functional
[4] = test system: Homo sapiens; test: Increase in hemoglobin levels in stage 3, 4, 5 chronic kidney disease patient at 200 to 700 mg administered for 28 days measured on day 29 relative to control; assay type: functional
[5] = biological target: Prolyl hydroxylase EGLN3 (Homo sapiens, UniProt Q9H6Z9); test: Inhibition of recombinant human HIF-PHD3 expressed in insect Sf9 cells using biotinyl-DLDLEMLAPYIPMDDDFQL as substrate after 60 mins by DELFIA
[6] = biological target: Prolyl hydroxylase EGLN2 (Homo sapiens, UniProt Q96KS0); test: Inhibition of recombinant human HIF-PHD1 expressed in insect Sf9 cells using biotinyl-DLDLEMLAPYIPMDDDFQL as substrate after 60 mins by DELFIA
[7] = biological target: Egl nine homolog 1 (Homo sapiens, UniProt Q9GZT9); test: biochemical
[8] = test system: Homo sapiens; test: Effect on hemoglobin levels in stage 3 and 4 chronic kidney disease patient at 200 to 700 mg administered for 28 days measured on day 29 (reference value: 9.91 g/dl); assay type: functional

Prolyl hydroxylase EGLN2, sequence (Q96KS0 whole entry): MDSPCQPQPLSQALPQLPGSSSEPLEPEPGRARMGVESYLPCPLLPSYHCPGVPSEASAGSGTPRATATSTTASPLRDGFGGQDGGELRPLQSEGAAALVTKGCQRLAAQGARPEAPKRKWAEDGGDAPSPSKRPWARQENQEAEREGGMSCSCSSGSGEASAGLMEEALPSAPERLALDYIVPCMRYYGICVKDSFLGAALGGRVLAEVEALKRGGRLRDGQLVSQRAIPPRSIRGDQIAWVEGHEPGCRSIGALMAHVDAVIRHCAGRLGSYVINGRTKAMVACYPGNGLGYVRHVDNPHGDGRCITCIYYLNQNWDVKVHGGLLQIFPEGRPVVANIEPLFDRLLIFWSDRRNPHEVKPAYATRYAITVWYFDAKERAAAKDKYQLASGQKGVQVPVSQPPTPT
Egl nine homolog 1, sequence (Q9GZT9 whole entry): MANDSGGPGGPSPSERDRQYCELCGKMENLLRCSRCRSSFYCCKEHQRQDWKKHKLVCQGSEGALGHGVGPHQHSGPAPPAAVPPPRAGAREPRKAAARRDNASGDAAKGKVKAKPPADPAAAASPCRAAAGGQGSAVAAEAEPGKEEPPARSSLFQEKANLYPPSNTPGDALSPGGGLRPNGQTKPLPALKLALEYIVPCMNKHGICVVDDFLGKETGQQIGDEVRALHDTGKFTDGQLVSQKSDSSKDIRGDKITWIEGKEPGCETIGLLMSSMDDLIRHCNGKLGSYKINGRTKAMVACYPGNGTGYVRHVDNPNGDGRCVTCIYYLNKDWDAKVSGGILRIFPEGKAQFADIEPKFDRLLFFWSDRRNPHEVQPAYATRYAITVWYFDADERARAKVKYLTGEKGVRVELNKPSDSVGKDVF
Prolyl hydroxylase EGLN3, sequence (Q9H6Z9 whole entry): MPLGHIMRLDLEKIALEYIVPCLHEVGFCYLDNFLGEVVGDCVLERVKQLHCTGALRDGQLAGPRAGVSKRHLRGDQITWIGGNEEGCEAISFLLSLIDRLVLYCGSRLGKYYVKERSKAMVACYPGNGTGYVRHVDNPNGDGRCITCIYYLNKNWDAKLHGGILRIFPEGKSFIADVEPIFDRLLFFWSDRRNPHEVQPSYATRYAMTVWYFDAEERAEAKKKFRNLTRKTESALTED

Cc1nc(C(=O)NCC(=O)O)c(O)c2ccc(Oc3ccccc3)cc12 [ROXADUSTAT]
fold change (FC) [1]: <=8
Activity [2]: >=1 g/dl

O=C(O)CNC(=O)C1C(=O)N(C2CCCCC2)C(=O)N(C2CCCCC2)C1=O [DAPRODUSTAT]
Activity [3]: 71 - 89%
Activity [4]: 63 - 91%

Oc1c(-n2ccnn2)cnn1-c1cc(N2CCOCC2)ncn1 [MOLIDUSTAT SODIUM]
IC50 [5]: 0.45 µM
IC50 [6]: 0.48 µM
IC50 [7]: 0.28 µM

O=C(O)CNC(=O)c1ncc(-c2cccc(Cl)c2)cc1O
Activity [8]: 10.54 g/dL

— ChEMBL document CHEMBL3861947 (Medchemcomm, 2016)
